Test results reported in ChEMBL document CHEMBL1201862, “PubChem BioAssay data set” (2004).
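Assay format: 96-well plates, 48-hour exposure. GI50 = concentration required for 50% inhibition of growth.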 Activity calls are given as the source filed them. Rule as the data show it: active = GI50 up to about 1.1 µM and inactive = higher.

Legend:
Test in all cases: NCI tumour cell line growth inhibition, 48 h
Malme-3M = test system: Malme-3M
M14 = test system: M14
TK-10 = test system: TK-10
OVCAR-4 = test system: OVCAR-4
MDA-N = test system: MDA-N
HOP-92 = test system: HOP-92
LOX IMVI = test system: LOX IMVI
NCI-H522 = test system: NCI-H522
HT-29 = test system: HT-29
RXF 393 = test system: RXF 393
OVCAR-8 = test system: OVCAR-8
PC-3 = test system: PC-3
BT-549 = test system: BT-549
A549 = test system: A549
SN12C = test system: SN12C
SK-OV-3 = test system: SK-OV-3
NCI-H226 = test system: NCI-H226
CAKI-1 = test system: CAKI-1

COC1=C(N2CC2)C(=O)c2nc3n(c2C1=O)CCC3
GI50 (Malme-3M): 0.305 µM (active)
GI50 (M14): 0.22 µM (active)
GI50 (TK-10): 3.23 µM (inactive)
GI50 (OVCAR-4): 0.22 µM (active)
GI50 (MDA-N): 1.38 µM (inactive)
GI50 (HOP-92): 3.33 µM (inactive)
GI50 (LOX IMVI): 0.406 µM (active)
GI50 (NCI-H522): 0.147 µM (active)
GI50 (HT-29): 0.352 µM (active)
GI50 (RXF 393): 0.0743 µM (active)
GI50 (OVCAR-8): 1.35 µM (inactive)
GI50 (PC-3): 0.695 µM (active)
GI50 (BT-549): 1.15 µM (inactive)
GI50 (A549): 1.98 µM (inactive)
GI50 (SN12C): 1.3 µM (inactive)
GI50 (SK-OV-3): 1.18 µM (inactive)
GI50 (NCI-H226): 1.87 µM (inactive)

C#CCOCCCC(=O)O
GI50 (M14): > 100 µM (inactive)
GI50 (TK-10): > 100 µM (inactive)
GI50 (OVCAR-4): > 100 µM (inactive)
GI50 (MDA-N): > 100 µM (inactive)
GI50 (HOP-92): > 100 µM (inactive)
GI50 (LOX IMVI): > 100 µM (inactive)
GI50 (HT-29): > 100 µM (inactive)
GI50 (RXF 393): > 100 µM (inactive)
GI50 (OVCAR-8): > 100 µM (inactive)
GI50 (PC-3): > 100 µM (inactive)
GI50 (CAKI-1): > 100 µM (inactive)
GI50 (BT-549): > 100 µM (inactive)
GI50 (A549): > 100 µM (inactive)
GI50 (SN12C): > 100 µM (inactive)
GI50 (SK-OV-3): > 100 µM (inactive)
GI50 (NCI-H226): > 100 µM (inactive)

O=C1OCC2=C1C(c1ccc(Cl)cc1)c1cc3c(cc1O2)OCO3 (centres undefined)
GI50 (Malme-3M): 6.41 µM (inactive)
GI50 (M14): 4.08 µM (inactive)
GI50 (TK-10): 8.05 µM (inactive)
GI50 (OVCAR-4): 84.9 µM (inactive)
GI50 (MDA-N): 0.902 µM (active)
GI50 (HOP-92): > 35.8 µM (inactive)
GI50 (LOX IMVI): 3.66 µM (inactive)
GI50 (HT-29): 3.72 µM (inactive)
GI50 (RXF 393): 4.06 µM (inactive)
GI50 (OVCAR-8): 9.12 µM (inactive)
GI50 (PC-3): 3.62 µM (inactive)
GI50 (CAKI-1): 1.66 µM (inactive)
GI50 (BT-549): 3.37 µM (inactive)
GI50 (A549): 4.79 µM (inactive)
GI50 (SN12C): 10.5 µM (inactive)
GI50 (SK-OV-3): 2.83 µM (inactive)
GI50 (NCI-H226): > 100 µM (inactive)

c1cc2nsnc2c2c[nH]cc12
GI50 (Malme-3M): > 100 µM (inactive)
GI50 (TK-10): > 100 µM (inactive)
GI50 (OVCAR-4): > 100 µM (inactive)
GI50 (MDA-N): 71.4 µM (inactive)
GI50 (HOP-92): 28.1 µM (inactive)
GI50 (LOX IMVI): > 100 µM (inactive)
GI50 (NCI-H522): 56.5 µM (inactive)
GI50 (HT-29): > 100 µM (inactive)
GI50 (RXF 393): 52.7 µM (inactive)
GI50 (OVCAR-8): 34.2 µM (inactive)
GI50 (PC-3): 45.1 µM (inactive)
GI50 (CAKI-1): > 100 µM (inactive)
GI50 (BT-549): 49.7 µM (inactive)
GI50 (A549): 64.9 µM (inactive)
GI50 (SN12C): > 100 µM (inactive)
GI50 (SK-OV-3): > 100 µM (inactive)
GI50 (NCI-H226): 99.5 µM (inactive)

CC(=O)Nc1cc2ccc(=O)oc2cc1Cl
GI50 (Malme-3M): > 100 µM (inactive)
GI50 (M14): > 100 µM (inactive)
GI50 (OVCAR-4): > 100 µM (inactive)
GI50 (MDA-N): > 100 µM (inactive)
GI50 (HOP-92): > 100 µM (inactive)
GI50 (LOX IMVI): > 100 µM (inactive)
GI50 (NCI-H522): > 100 µM (inactive)
GI50 (HT-29): > 100 µM (inactive)
GI50 (RXF 393): > 100 µM (inactive)
GI50 (OVCAR-8): > 100 µM (inactive)
GI50 (PC-3): > 100 µM (inactive)
GI50 (CAKI-1): > 100 µM (inactive)
GI50 (BT-549): > 100 µM (inactive)
GI50 (A549): > 100 µM (inactive)
GI50 (SN12C): > 100 µM (inactive)
GI50 (NCI-H226): > 100 µM (inactive)

O=C1COc2cccnc2N1CCCCO
GI50 (TK-10): > 100 µM (inactive)
GI50 (MDA-N): > 100 µM (inactive)
GI50 (HOP-92): > 100 µM (inactive)
GI50 (LOX IMVI): > 100 µM (inactive)
GI50 (NCI-H522): > 100 µM (inactive)
GI50 (RXF 393): > 100 µM (inactive)
GI50 (PC-3): > 100 µM (inactive)
GI50 (CAKI-1): > 100 µM (inactive)
GI50 (BT-549): > 100 µM (inactive)
GI50 (A549): > 100 µM (inactive)
GI50 (SN12C): > 100 µM (inactive)
GI50 (SK-OV-3): > 100 µM (inactive)

CCOC(=O)c1nnsc1NN
GI50 (M14): 90.6 µM (inactive)
GI50 (TK-10): > 100 µM (inactive)
GI50 (OVCAR-4): > 100 µM (inactive)
GI50 (MDA-N): 72.6 µM (inactive)
GI50 (HOP-92): > 100 µM (inactive)
GI50 (LOX IMVI): 30.1 µM (inactive)
GI50 (NCI-H522): > 100 µM (inactive)
GI50 (HT-29): 55.5 µM (inactive)
GI50 (RXF 393): > 100 µM (inactive)
GI50 (OVCAR-8): > 100 µM (inactive)
GI50 (PC-3): > 100 µM (inactive)
GI50 (CAKI-1): 76.2 µM (inactive)
GI50 (BT-549): > 100 µM (inactive)
GI50 (A549): 62.5 µM (inactive)
GI50 (SN12C): > 100 µM (inactive)
GI50 (SK-OV-3): > 100 µM (inactive)
GI50 (NCI-H226): > 100 µM (inactive)

CCSCCC(N)C(=O)O (centres undefined)
GI50 (Malme-3M): > 100 µM (inactive)
GI50 (M14): > 100 µM (inactive)
GI50 (TK-10): > 100 µM (inactive)
GI50 (OVCAR-4): > 100 µM (inactive)
GI50 (MDA-N): > 100 µM (inactive)
GI50 (HOP-92): > 100 µM (inactive)
GI50 (LOX IMVI): > 100 µM (inactive)
GI50 (NCI-H522): > 100 µM (inactive)
GI50 (HT-29): > 100 µM (inactive)
GI50 (RXF 393): > 100 µM (inactive)
GI50 (OVCAR-8): > 100 µM (inactive)
GI50 (PC-3): > 100 µM (inactive)
GI50 (BT-549): > 100 µM (inactive)
GI50 (A549): > 100 µM (inactive)
GI50 (SN12C): > 100 µM (inactive)
GI50 (SK-OV-3): > 100 µM (inactive)
GI50 (NCI-H226): > 100 µM (inactive)

COc1ccc(/N=N/c2c(C)c(C#N)c(=S)n(C3OC(COC(C)=O)C(OC(C)=O)C(OC(C)=O)C3OC(C)=O)c2C)cc1 (centres undefined)
GI50 (Malme-3M): > 100 µM (inactive)
GI50 (M14): 90.6 µM (inactive)
GI50 (TK-10): > 100 µM (inactive)
GI50 (OVCAR-4): > 100 µM (inactive)
GI50 (MDA-N): > 100 µM (inactive)
GI50 (HOP-92): 24.6 µM (inactive)
GI50 (LOX IMVI): > 100 µM (inactive)
GI50 (HT-29): > 100 µM (inactive)
GI50 (RXF 393): 62.5 µM (inactive)
GI50 (PC-3): > 100 µM (inactive)
GI50 (CAKI-1): > 100 µM (inactive)
GI50 (BT-549): > 100 µM (inactive)
GI50 (A549): > 100 µM (inactive)
GI50 (SN12C): > 100 µM (inactive)
GI50 (SK-OV-3): 54.5 µM (inactive)

C[C@]12CC[C@H]3[C@@H](CCC4=CC(=O)CC[C@@]43C)[C@@H]1CC[C@@H]2OC(=O)c1cccc2c(=O)c3ccccc3[nH]c12
GI50 (Malme-3M): 47.3 µM (inactive)
GI50 (M14): > 100 µM (inactive)
GI50 (TK-10): > 100 µM (inactive)
GI50 (OVCAR-4): 54.7 µM (inactive)
GI50 (MDA-N): 42.1 µM (inactive)
GI50 (HOP-92): 84.5 µM (inactive)
GI50 (LOX IMVI): 26.9 µM (inactive)
GI50 (NCI-H522): > 100 µM (inactive)
GI50 (HT-29): 43.8 µM (inactive)
GI50 (RXF 393): 75.7 µM (inactive)
GI50 (OVCAR-8): > 100 µM (inactive)
GI50 (PC-3): 44.4 µM (inactive)
GI50 (BT-549): 58.1 µM (inactive)
GI50 (A549): > 100 µM (inactive)
GI50 (SN12C): > 100 µM (inactive)
GI50 (SK-OV-3): 58.5 µM (inactive)
GI50 (NCI-H226): 75.3 µM (inactive)

O=C1/C(=C/c2cccc(Br)c2)Cc2ccccc21
GI50 (Malme-3M): > 100 µM (inactive)
GI50 (M14): 67.3 µM (inactive)
GI50 (TK-10): 63.5 µM (inactive)
GI50 (OVCAR-4): 38.9 µM (inactive)
GI50 (MDA-N): 54 µM (inactive)
GI50 (HOP-92): 24.8 µM (inactive)
GI50 (LOX IMVI): 45.1 µM (inactive)
GI50 (NCI-H522): 96.4 µM (inactive)
GI50 (HT-29): 45 µM (inactive)
GI50 (OVCAR-8): 78.9 µM (inactive)
GI50 (PC-3): 29.9 µM (inactive)
GI50 (CAKI-1): 75.7 µM (inactive)
GI50 (BT-549): 34.5 µM (inactive)
GI50 (A549): 26.8 µM (inactive)
GI50 (SN12C): > 100 µM (inactive)
GI50 (SK-OV-3): 93.1 µM (inactive)
GI50 (NCI-H226): 21.6 µM (inactive)

COc1cc2c(cc1-c1coc3cc(O)ccc3c1=O)OCO2 [CUNEATIN]
GI50 (M14): 71 µM (inactive)
GI50 (TK-10): 20.9 µM (inactive)
GI50 (OVCAR-4): 19.8 µM (inactive)
GI50 (MDA-N): 48.9 µM (inactive)
GI50 (HOP-92): 29 µM (inactive)
GI50 (LOX IMVI): 46.6 µM (inactive)
GI50 (NCI-H522): 16.4 µM (inactive)
GI50 (HT-29): 99.3 µM (inactive)
GI50 (OVCAR-8): 19.3 µM (inactive)
GI50 (PC-3): 43 µM (inactive)
GI50 (CAKI-1): 24 µM (inactive)
GI50 (BT-549): 19.5 µM (inactive)
GI50 (A549): 30.3 µM (inactive)
GI50 (SN12C): 25.4 µM (inactive)
GI50 (SK-OV-3): 19.9 µM (inactive)
GI50 (NCI-H226): 20.3 µM (inactive)
